From the NIST ThermoML archive (doi:10.1016/j.jct.2012.07.006)
Numbers after ± are expanded uncertainties.

Columns and labels:
[1] = 298.15 K; 101.33 kPa; Liquid; Pycnometric method
[2] = excess molar enthalpy (molar enthalpy of mixing); xn = mol fraction of the nth substance listed; conditions: 298.15 K, 101 kPa, Liquid, Calvet calorimetry

SMILES: CNc1ccccc1 [N-methylaniline]
- mass density [1]: 982.237 ± 20 kg/m3

SMILES: CNc1ccccc1 [N-methylaniline] + C1CCCCC1
- excess molar enthalpy ([2]; x1 = 0.0978): 0.197 ± 0.0043 kcal/mol
- excess molar enthalpy ([2]; x1 = 0.1987): 0.31 ± 0.00669 kcal/mol
- excess molar enthalpy ([2]; x1 = 0.2934): 0.364 ± 0.00789 kcal/mol
- excess molar enthalpy ([2]; x1 = 0.4002): 0.385 ± 0.00813 kcal/mol
- excess molar enthalpy ([2]; x1 = 0.4937): 0.389 ± 0.00837 kcal/mol
- excess molar enthalpy ([2]; x1 = 0.5934): 0.368 ± 0.00789 kcal/mol
- excess molar enthalpy ([2]; x1 = 0.6935): 0.313 ± 0.00669 kcal/mol
- excess molar enthalpy ([2]; x1 = 0.7953): 0.232 ± 0.00502 kcal/mol
- excess molar enthalpy ([2]; x1 = 0.8938): 0.136 ± 0.00287 kcal/mol

SMILES: CNc1ccccc1 [N-methylaniline] + CCCCCCC
- excess molar enthalpy ([2]; x1 = 0.102): 0.196 ± 0.0043 kcal/mol
- excess molar enthalpy ([2]; x1 = 0.1982): 0.309 ± 0.00669 kcal/mol
- excess molar enthalpy ([2]; x1 = 0.2968): 0.368 ± 0.00789 kcal/mol
- excess molar enthalpy ([2]; x1 = 0.3935): 0.395 ± 0.00837 kcal/mol
- excess molar enthalpy ([2]; x1 = 0.4983): 0.401 ± 0.0086 kcal/mol
- excess molar enthalpy ([2]; x1 = 0.5982): 0.382 ± 0.00813 kcal/mol
- excess molar enthalpy ([2]; x1 = 0.6934): 0.344 ± 0.00741 kcal/mol
- excess molar enthalpy ([2]; x1 = 0.7941): 0.269 ± 0.00574 kcal/mol
- excess molar enthalpy ([2]; x1 = 0.8939): 0.162 ± 0.00359 kcal/mol

SMILES: CNc1ccccc1 [N-methylaniline] + CCCCCCCC
- excess molar enthalpy ([2]; x1 = 0.1045): 0.204 ± 0.0043 kcal/mol
- excess molar enthalpy ([2]; x1 = 0.2002): 0.322 ± 0.00693 kcal/mol
- excess molar enthalpy ([2]; x1 = 0.303): 0.388 ± 0.00837 kcal/mol
- excess molar enthalpy ([2]; x1 = 0.4117): 0.419 ± 0.00884 kcal/mol
- excess molar enthalpy ([2]; x1 = 0.4956): 0.424 ± 0.00908 kcal/mol
- excess molar enthalpy ([2]; x1 = 0.5965): 0.405 ± 0.0086 kcal/mol
- excess molar enthalpy ([2]; x1 = 0.6933): 0.361 ± 0.00765 kcal/mol
- excess molar enthalpy ([2]; x1 = 0.791): 0.285 ± 0.00621 kcal/mol
- excess molar enthalpy ([2]; x1 = 0.889): 0.184 ± 0.00406 kcal/mol

SMILES: CNc1ccccc1 [N-methylaniline] + CCCCCCCCCC
- excess molar enthalpy ([2]; x1 = 0.1015): 0.211 ± 0.00454 kcal/mol
- excess molar enthalpy ([2]; x1 = 0.201): 0.34 ± 0.00717 kcal/mol
- excess molar enthalpy ([2]; x1 = 0.2993): 0.413 ± 0.00884 kcal/mol
- excess molar enthalpy ([2]; x1 = 0.3848): 0.448 ± 0.00956 kcal/mol
- excess molar enthalpy ([2]; x1 = 0.487): 0.458 ± 0.0098 kcal/mol
- excess molar enthalpy ([2]; x1 = 0.5963): 0.44 ± 0.00932 kcal/mol
- excess molar enthalpy ([2]; x1 = 0.6951): 0.395 ± 0.00837 kcal/mol
- excess molar enthalpy ([2]; x1 = 0.7934): 0.316 ± 0.00669 kcal/mol
- excess molar enthalpy ([2]; x1 = 0.8899): 0.205 ± 0.0043 kcal/mol

SMILES: CNc1ccccc1 [N-methylaniline] + Cc1ccccc1
- excess molar enthalpy ([2]; x1 = 0.0991): 0.0535 ± 0.0012 kcal/mol
- excess molar enthalpy ([2]; x1 = 0.1956): 0.088 ± 0.00191 kcal/mol
- excess molar enthalpy ([2]; x1 = 0.2952): 0.11 ± 0.00239 kcal/mol
- excess molar enthalpy ([2]; x1 = 0.399): 0.12 ± 0.00263 kcal/mol
- excess molar enthalpy ([2]; x1 = 0.4973): 0.119 ± 0.00263 kcal/mol
- excess molar enthalpy ([2]; x1 = 0.5922): 0.111 ± 0.00239 kcal/mol
- excess molar enthalpy ([2]; x1 = 0.6882): 0.0925 ± 0.00215 kcal/mol
- excess molar enthalpy ([2]; x1 = 0.7892): 0.0686 ± 0.00143 kcal/mol
- excess molar enthalpy ([2]; x1 = 0.8851): 0.0397 ± 0.000956 kcal/mol

SMILES: C1CCCCC1 [cyclohexane]
- mass density [1]: 773.96 ± 20 kg/m3

SMILES: CCCCCCCCCC [decane]
- mass density [1]: 726.47 ± 20 kg/m3

SMILES: CCCCCCC [heptane]
- mass density [1]: 679.71 ± 20 kg/m3

SMILES: CCCCCCCCCCCCCCCC [hexadecane]
- mass density [1]: 769.91 ± 20 kg/m3

SMILES: CCCCCCCC [octane]
- mass density [1]: 698.75 ± 20 kg/m3

SMILES: CCCCCCCCCCCCCC [tetradecane]
- mass density [1]: 759.19 ± 20 kg/m3

SMILES: Cc1ccccc1 [toluene]
- mass density [1]: 862.346 ± 24 kg/m3
